Reference: article PMC12435777, “Assessing Acetyl-Coenzyme A Carboxylase Activity and Inhibition in Caenorhabtidis elegans Using a Partially Purified Protein Extract” (Analytical Chemistry, 2025)

Molecular target: acetyl-CoA carboxylase (ACC, POD-2) (Caenorhabditis elegans, UniProt H2L0M0)
Assay: real-time HPLC and NMR kinetics of malonyl-CoA formation with partially purified enzyme extract; Ki estimated from the change in KM
Type: biochemical

Sequence of acetyl-CoA carboxylase (ACC, POD-2) (H2L0M0 entry or part of it): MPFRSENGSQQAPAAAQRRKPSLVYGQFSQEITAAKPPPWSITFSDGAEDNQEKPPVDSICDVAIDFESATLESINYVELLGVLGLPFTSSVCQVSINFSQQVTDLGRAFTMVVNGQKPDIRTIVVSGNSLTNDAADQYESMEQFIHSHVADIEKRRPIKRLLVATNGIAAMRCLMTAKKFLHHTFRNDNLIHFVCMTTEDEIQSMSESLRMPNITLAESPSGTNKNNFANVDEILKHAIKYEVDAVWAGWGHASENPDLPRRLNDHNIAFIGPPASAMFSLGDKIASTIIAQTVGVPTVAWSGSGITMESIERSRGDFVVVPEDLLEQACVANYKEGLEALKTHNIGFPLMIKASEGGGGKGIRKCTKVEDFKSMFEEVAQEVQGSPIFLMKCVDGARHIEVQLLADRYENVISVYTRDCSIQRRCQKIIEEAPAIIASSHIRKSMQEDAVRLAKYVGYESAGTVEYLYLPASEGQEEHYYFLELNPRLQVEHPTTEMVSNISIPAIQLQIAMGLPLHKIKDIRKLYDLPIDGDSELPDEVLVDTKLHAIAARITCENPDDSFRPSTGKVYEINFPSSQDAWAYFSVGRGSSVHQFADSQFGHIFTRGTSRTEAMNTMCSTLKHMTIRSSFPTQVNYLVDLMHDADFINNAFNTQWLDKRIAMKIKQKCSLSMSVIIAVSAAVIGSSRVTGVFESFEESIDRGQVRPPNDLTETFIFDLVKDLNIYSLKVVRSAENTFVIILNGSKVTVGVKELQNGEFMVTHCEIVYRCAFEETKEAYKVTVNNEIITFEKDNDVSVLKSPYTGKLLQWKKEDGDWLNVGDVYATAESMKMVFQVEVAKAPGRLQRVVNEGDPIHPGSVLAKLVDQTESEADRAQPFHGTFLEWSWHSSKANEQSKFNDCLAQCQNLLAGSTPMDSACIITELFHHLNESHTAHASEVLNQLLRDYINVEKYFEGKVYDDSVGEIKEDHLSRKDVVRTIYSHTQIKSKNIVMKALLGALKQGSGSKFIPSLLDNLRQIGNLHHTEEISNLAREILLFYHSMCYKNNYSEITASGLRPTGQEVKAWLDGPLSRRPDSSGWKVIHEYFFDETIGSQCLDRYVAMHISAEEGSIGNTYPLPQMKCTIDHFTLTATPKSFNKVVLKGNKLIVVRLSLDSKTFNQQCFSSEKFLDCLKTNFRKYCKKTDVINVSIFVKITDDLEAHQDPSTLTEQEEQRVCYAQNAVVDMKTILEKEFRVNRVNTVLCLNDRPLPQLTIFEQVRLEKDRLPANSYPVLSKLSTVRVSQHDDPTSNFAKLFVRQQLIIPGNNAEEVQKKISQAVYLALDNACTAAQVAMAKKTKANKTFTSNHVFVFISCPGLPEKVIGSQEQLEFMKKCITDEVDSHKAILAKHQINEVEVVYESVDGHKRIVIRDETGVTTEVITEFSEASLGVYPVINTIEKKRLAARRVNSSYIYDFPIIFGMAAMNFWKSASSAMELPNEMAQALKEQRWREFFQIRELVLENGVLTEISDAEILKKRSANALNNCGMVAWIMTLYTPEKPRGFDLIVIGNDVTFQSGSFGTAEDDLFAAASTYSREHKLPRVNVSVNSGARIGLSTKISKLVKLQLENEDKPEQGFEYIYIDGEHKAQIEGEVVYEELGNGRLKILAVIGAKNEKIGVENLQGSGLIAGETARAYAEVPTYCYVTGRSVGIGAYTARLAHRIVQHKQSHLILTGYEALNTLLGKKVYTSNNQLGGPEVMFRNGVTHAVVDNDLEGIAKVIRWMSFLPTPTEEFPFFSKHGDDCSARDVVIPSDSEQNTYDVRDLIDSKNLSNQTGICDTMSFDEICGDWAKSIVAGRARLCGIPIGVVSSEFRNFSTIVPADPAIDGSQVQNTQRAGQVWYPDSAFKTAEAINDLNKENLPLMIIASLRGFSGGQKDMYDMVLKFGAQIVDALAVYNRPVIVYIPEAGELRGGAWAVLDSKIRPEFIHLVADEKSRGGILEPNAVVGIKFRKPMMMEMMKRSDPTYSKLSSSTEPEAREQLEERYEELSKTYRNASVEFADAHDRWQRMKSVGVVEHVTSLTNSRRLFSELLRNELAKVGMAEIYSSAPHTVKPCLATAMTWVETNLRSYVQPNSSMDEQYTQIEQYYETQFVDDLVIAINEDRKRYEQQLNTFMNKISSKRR

Ki: ~12.5 µM
Compound: C=CCCCCCCCCCCC[C@@H](O)C[C@@H](O)COC(C)=O [avocadene acetate]
